One assay deals with T1, human recombinant GR (Homo sapiens, UniProt P04150).
T1 construct: purchased PanVera P2812
T1 sequence (P04150 1-777): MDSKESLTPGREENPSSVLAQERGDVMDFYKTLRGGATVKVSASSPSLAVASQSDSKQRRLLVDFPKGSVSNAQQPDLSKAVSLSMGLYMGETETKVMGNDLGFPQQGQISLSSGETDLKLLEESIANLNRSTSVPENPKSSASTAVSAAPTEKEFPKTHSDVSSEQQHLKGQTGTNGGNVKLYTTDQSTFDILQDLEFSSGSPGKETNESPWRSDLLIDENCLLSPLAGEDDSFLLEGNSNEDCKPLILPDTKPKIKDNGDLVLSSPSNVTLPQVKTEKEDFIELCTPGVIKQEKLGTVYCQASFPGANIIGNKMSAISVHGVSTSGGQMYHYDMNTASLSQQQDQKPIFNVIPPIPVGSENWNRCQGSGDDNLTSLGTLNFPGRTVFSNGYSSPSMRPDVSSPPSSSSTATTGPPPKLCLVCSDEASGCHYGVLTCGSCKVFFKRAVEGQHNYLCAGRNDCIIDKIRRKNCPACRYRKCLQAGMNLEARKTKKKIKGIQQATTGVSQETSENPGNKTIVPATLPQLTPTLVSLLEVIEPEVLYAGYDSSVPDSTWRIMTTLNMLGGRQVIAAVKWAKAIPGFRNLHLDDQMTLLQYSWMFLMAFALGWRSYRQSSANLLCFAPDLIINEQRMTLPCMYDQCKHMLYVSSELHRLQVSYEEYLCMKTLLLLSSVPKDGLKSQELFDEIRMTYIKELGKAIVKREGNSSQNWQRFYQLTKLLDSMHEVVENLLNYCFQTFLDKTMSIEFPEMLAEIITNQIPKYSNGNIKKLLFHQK
The experiment in a line: Human glucocorticoid receptor (GR) fluorescence polarisation (FP) binding assay. A digest of the protocol: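 Competition fluorescence polarisation: 0.5 nM GS Red labelled glucocorticoid and 1 nM recombinant human GR with 8-point half-log compound series, 1% DMSO, 4 h room temperature, potassium phosphate pH 7.4 buffer with molybdate, EDTA, DTT. Affinity derived from the drop in polarisation, normalised to blank wells.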
(In fluorescence polarisation assays a small probe gives low polarisation when free and higher when bound to something large.)

Assay [1] has as its system induction of TAT by dexamethasone in HepG2 cells. The experiment in a line: HepG2 tyrosine aminotransferase (TAT) assay. Type of assay: cell-based, human.
[2] abbreviates: human recombinant GR, fluorescence polarisation binding assay, read-out: GR binding.
[3] abbreviates: HepG2 cells, challenge of 100 nM dexamethasone, Ki from IC50 by Cheng and Prusoff equation.

pKi: −log10 of the molar value. Read-outs that look alike come from different tables or passages of the source.

Take `O=C(c1ccccn1)[C@]12Cc3cnn(-c4ccc(F)cc4)c3C=C1CCN(S(=O)(=O)c1cncc(N3CCCC3)c1)C2` [Example 10B, (R)-(1-(4-fluorophenyl)-6-((5-(pyrrolidin-1-yl)pyridin-3-yl)sulfonyl)-4,4a,5,6,7,8-hexahydro-1H-pyrazolo[3,4-g]isoquinolin-4a-yl)(pyridin-2-yl)methanone]: the pKi on human recombinant GR (setting [2]) was over 9.30; in assay [1] (setting [3]), over 7.70.
In the case of `O=C(c1cscn1)[C@]12Cc3cnn(-c4ccc(F)cc4)c3C=C1CCN(S(=O)(=O)c1ccc(C(F)(F)F)cc1)C2` [Example 11, (R)-(1-(4-fluorophenyl)-6-((4-(trifluoromethyl)phenyl)sulfonyl)-4,4a,5,6,7,8-hexahydro-1H-pyrazolo[3,4-g]isoquinolin-4a-yl)(thiazol-4-yl)methanone], the figures for the pKi (on human recombinant GR; in assay [1] (setting [3])) were over 9.30 and 7.00 to 7.70, respectively.
Take `O=C(c1ccccn1)[C@]12Cc3cnn(-c4ccc(F)cc4)c3C=C1CCN(S(=O)(=O)c1ccc(Cl)cc1)C2` [Example 11A, (R)-(6-((4-chlorophenyl)sulfonyl)-1-(4-fluorophenyl)-4,4a,5,6,7,8-hexahydro-1H-pyrazolo[3,4-g]isoquinolin-4a-yl)(pyridin-2-yl)methanone]: the pKi is over 9.30 on human recombinant GR (setting [2]) and over 7.70 in assay [1] (setting [3]).
Taken in the same sequence, the figures for `COCc1cccc(S(=O)(=O)N2CCC3=Cc4c(cnn4-c4ccc(F)cc4)C[C@]3(C(=O)c3ccccn3)C2)c1` [Example 11AA, (R)-(1-(4-fluorophenyl)-6-((3-(methoxymethyl)phenyl)sulfonyl)-4,4a,5,6,7,8-hexahydro-1H-pyrazolo[3,4-g]isoquinolin-4a-yl)(pyridin-2-yl)methanone] were over 9.30 and 7.00 to 7.70.
As to `CN1CCOc2cc(S(=O)(=O)N3CCC4=Cc5c(cnn5-c5ccc(F)cc5)C[C@]4(C(=O)c4ccccn4)C3)cnc21` [Example 11AB, (R)-(1-(4-fluorophenyl)-6-((4-methyl-3,4-dihydro-2H-pyrido [3,2-b][1,4]oxazin-7-yl)sulfonyl)-4,4a,5,6,7,8-hexahydro-1H-pyrazolo[3,4-g]isoquinolin-4a-yl)(pyridin-2-yl)methanone], the results for the pKi (at human recombinant GR (setting [2]); in assay [1] (setting [3])) were over 9.30 and 7.00 to 7.70, respectively.
On the same counts, the results for `O=C(c1ccccn1)[C@]12Cc3cnn(-c4ccc(F)cc4)c3C=C1CCN(S(=O)(=O)c1ccc(F)c(F)c1F)C2` [Example 11AC, (R)-(1-(4-fluorophenyl)-6-((2,3,4-trifluorophenyl)sulfonyl)-4,4a,5,6,7,8-hexahydro-1H-pyrazolo[3,4-g]isoquinolin-4a-yl)(pyridin-2-yl)methanone] are over 9.30 and over 7.70.
Taken in the same sequence, the figures for `O=C(c1ccccn1)[C@]12Cc3cnn(-c4ccc(F)cc4)c3C=C1CCN(S(=O)(=O)c1cccc(C(F)(F)F)n1)C2` [Example 11AD, (R)-(1-(4-fluorophenyl)-6-((6-(trifluoromethyl)pyridin-2-yl)sulfonyl)-4,4a,5,6,7,8-hexahydro-1H-pyrazolo[3,4-g]isoquinolin-4a-yl)(pyridin-2-yl)methanone] were over 9.30 and over 7.70.
With `Cc1ccnc(C(=O)[C@]23Cc4cnn(-c5ccc(F)cc5)c4C=C2CCN(S(=O)(=O)c2cccc(C(F)(F)F)n2)C3)c1` [Example 11AE, (R)-(1-(4-fluorophenyl)-6-((6-(trifluoromethyl)pyridin-2-yl)sulfonyl)-4,4a,5,6,7,8-hexahydro-1H-pyrazolo[3,4-g]isoquinolin-4a-yl)(4-methylpyridin-2-yl)methanone], the pKi at human recombinant GR (setting [2]) was over 9.30; in assay [1] (setting [3]) it was over 7.70.
For the molecule `O=C(c1ccccn1)[C@]12Cc3cnn(-c4ccc(F)cc4)c3C=C1CCN(S(=O)(=O)c1ccc(Cl)c(Cl)c1)C2` [Example 11AF, (R)-(6-((3,4-dichlorophenyl)sulfonyl)-1-(4-fluorophenyl)-4,4a,5,6,7,8-hexahydro-1H-pyrazolo[3,4-g]isoquinolin-4a-yl)(pyridin-2-yl)methanone], the values for the pKi (at human recombinant GR; in assay [1]) were over 9.30 and over 7.70, respectively.
As for `Cc1ccnc(C(=O)[C@]23Cc4cnn(-c5ccc(F)cc5)c4C=C2CCN(S(=O)(=O)c2cccc(C(F)(F)F)c2)C3)c1` [Example 11AG, (R)-(1-(4-fluorophenyl)-6-((3-(trifluoromethyl)phenyl)sulfonyl)-4,4a,5,6,7,8-hexahydro-1H-pyrazolo[3,4-g]isoquinolin-4a-yl)(4-methylpyridin-2-yl)methanone], the pKi on human recombinant GR (setting [2]) was over 9.30; in assay [1] (setting [3]), over 7.70.
In the case of `CCn1cc(S(=O)(=O)N2CCC3=Cc4c(cnn4-c4ccc(F)cc4)C[C@]3(C(=O)c3cc(C)ccn3)C2)cn1` [Example 11AH, (R)-(6-((1-ethyl-1H-pyrazol-4-yl)sulfonyl)-1-(4-fluorophenyl)-4,4a,5,6,7,8-hexahydro-1H-pyrazolo[3,4-g]isoquinolin-4a-yl)(4-methylpyridin-2-yl)methanone], the pKi at human recombinant GR (setting [2]) is over 9.30; in assay [1] (setting [3]) it was over 7.70.
With `Cc1ccnc(C(=O)[C@]23Cc4cnn(-c5ccc(F)cc5)c4C=C2CCN(S(=O)(=O)c2cnn(C)c2C)C3)c1` [Example 11AI, (R)-(6-((1,5-dimethyl-1H-pyrazol-4-yl)sulfonyl)-1-(4-fluorophenyl)-4,4a,5,6,7,8-hexahydro-1H-pyrazolo[3,4-g]isoquinolin-4a-yl)(4-methylpyridin-2-yl)methanone], the pKi is over 9.30 at human recombinant GR (setting [2]) and over 7.70 in assay [1] (setting [3]).
Taken in the same sequence, the figures for `Cc1ccnc(C(=O)[C@]23Cc4cnn(-c5ccc(F)cc5)c4C=C2CCN(S(=O)(=O)c2ccnn2C)C3)c1` [Example 11AJ, (R)-(1-(4-fluorophenyl)-6-((1-methyl-1H-pyrazol-5-yl)sulfonyl)-4,4a,5,6,7,8-hexahydro-1H-pyrazolo[3,4-g]isoquinolin-4a-yl)(4-methylpyridin-2-yl)methanone] were over 9.30 and over 7.70.
Taken in the same sequence, the figures for `Cc1ccnc(C(=O)[C@]23Cc4cnn(-c5ccc(F)cc5)c4C=C2CCN(S(=O)(=O)c2ccn(C)n2)C3)c1` [Example 11AK, (R)-(1-(4-fluorophenyl)-6-((1-methyl-1H-pyrazol-3-yl)sulfonyl)-4,4a,5,6,7,8-hexahydro-1H-pyrazolo[3,4-g]isoquinolin-4a-yl)(4-methylpyridin-2-yl)methanone] were over 9.30 and over 7.70.
Taken in the same sequence, the figures for `Cc1ccnc(C(=O)[C@]23Cc4cnn(-c5ccc(F)cc5)c4C=C2CCN(S(=O)(=O)c2ccc(F)c(C)c2)C3)c1` [Example 11AL, (R)-(6-((4-fluoro-3-methylphenyl)sulfonyl)-1-(4-fluorophenyl)-4,4a,5,6,7,8-hexahydro-1H-pyrazolo[3,4-g]isoquinolin-4a-yl)(4-methylpyridin-2-yl)methanone] were over 9.30 and over 7.70.
Turning to `Cc1ccnc(C(=O)[C@]23Cc4cnn(-c5ccc(F)cc5)c4C=C2CCN(S(=O)(=O)c2cnc4c(c2)OCCN4C)C3)c1` [Example 11AM, (R)-(1-(4-fluorophenyl)-6-((4-methyl-3,4-dihydro-2H-pyrido[3,2-b][1,4]oxazin-7-yl)sulfonyl)-4,4a,5,6,7,8-hexahydro-1H-pyrazolo[3,4-g]isoquinolin-4a-yl)(4-methylpyridin-2-yl)methanone], the pKi on human recombinant GR (setting [2]) was over 9.30; in assay [1] (setting [3]) it was over 7.70.
